ChEMBL document CHEMBL1201862, “PubChem BioAssay data set” (2004)
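Tested at 5 concentrations; 48 h exposure; 96-well plates; endpoints linearly interpolated, else capped at highest concentration. The concentration for 50% growth inhibition is given as GI50.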 Activity calls are given as the source filed them. Cut-off read from the data, not from the text of the source: active = GI50 up to about 1.1 µM and inactive = higher.

Experiments:
Assay in all cases: inhibition of tumour cell growth, NCI panel, 48 h
TK-10 = test system: TK-10
SK-OV-3 = test system: SK-OV-3
LOX IMVI = test system: LOX IMVI
NCI-H522 = test system: NCI-H522
CAKI-1 = test system: CAKI-1
NCI-H23 = test system: NCI-H23
SNB-75 = test system: SNB-75
OVCAR-3 = test system: OVCAR-3
SF-295 = test system: SF-295
COLO 205 = test system: COLO 205
A549 = test system: A549
OVCAR-4 = test system: OVCAR-4
NCI-H460 = test system: NCI-H460
BT-549 = test system: BT-549
UACC-62 = test system: UACC-62
RPMI-8226 = test system: RPMI-8226
HL-60 = test system: HL-60
Hs-578T = test system: Hs-578T
SK-MEL-5 = test system: SK-MEL-5
SNB-19 = test system: SNB-19

Row | Structure (SMILES) | GI50 (TK-10) | GI50 (SK-OV-3) | GI50 (LOX IMVI) | GI50 (NCI-H522) | GI50 (CAKI-1) | GI50 (NCI-H23) | GI50 (SNB-75) | GI50 (OVCAR-3) | GI50 (SF-295) | GI50 (COLO 205) | GI50 (A549) | GI50 (OVCAR-4) | GI50 (NCI-H460) | GI50 (BT-549) | GI50 (UACC-62) | GI50 (RPMI-8226) | GI50 (HL-60) | GI50 (Hs-578T) | GI50 (SK-MEL-5) | GI50 (SNB-19)
1 | O=C1c2cccc([N+](=O)[O-])c2C(=O)N1c1ncn[nH]1 | 27.2 µM (inactive) | 32.7 µM (inactive) | > 100 µM (inactive) | > 100 µM (inactive) | > 100 µM (inactive) | > 100 µM (inactive) | 23.6 µM (inactive) | > 100 µM (inactive) | 51.5 µM (inactive) | > 100 µM (inactive) | > 100 µM (inactive) | > 100 µM (inactive) | > 100 µM (inactive) | 28.2 µM (inactive) | > 100 µM (inactive) | > 100 µM (inactive) | > 100 µM (inactive) | 36.4 µM (inactive) | > 100 µM (inactive) | 29.7 µM (inactive)
2 | CNc1c2cccc(C)c2nc2c(C(=O)NCCN(C)C)cccc12 | 0.128 µM (active) | 0.252 µM (active) | 0.112 µM (active) | < 0.01 µM (active) | < 0.0344 µM (active) | 0.107 µM (active) | 0.051 µM (active) | 0.214 µM (active) | 0.0586 µM (active) | 0.0423 µM (active) | 0.034 µM (active) | < 0.01 µM (active) | 0.0435 µM (active) | 1.04 µM (active) | 0.167 µM (active) | 0.0604 µM (active) | 0.0847 µM (active) | 0.0957 µM (active) | 0.18 µM (active) | 0.0805 µM (active)
3 | N=C(N)N/N=C/c1c(-c2ccc([N+](=O)[O-])cc2)nc2sc(Cl)cn12 | 2.05 µM (inactive) | 1.8 µM (inactive) | 0.871 µM (active) | 1.48 µM (inactive) | 1.67 µM (inactive) | 0.841 µM (active) | 0.593 µM (active) | 1.27 µM (inactive) | 1.17 µM (inactive) | 0.658 µM (active) | 0.593 µM (active) | 0.441 µM (active) | 1.73 µM (inactive) | 1.8 µM (inactive) | 1.6 µM (inactive) | 1.32 µM (inactive) | 1.38 µM (inactive) | 1.03 µM (active) | 0.891 µM (active) | 0.667 µM (active)
4 | Cc1cc(S(=O)(=O)Nc2nnc3c4ccccc4cnn23)c(S)cc1Cl | > 100 µM (inactive) | 34.7 µM (inactive) | > 100 µM (inactive) | > 88.5 µM (inactive) | > 100 µM (inactive) | 63 µM (inactive) | 69.8 µM (inactive) | > 86.3 µM (inactive) | 47.5 µM (inactive) | > 100 µM (inactive) | 70.5 µM (inactive) | > 100 µM (inactive) | 31.3 µM (inactive) | > 54.5 µM (inactive) | 46.9 µM (inactive) | > 100 µM (inactive) | > 100 µM (inactive) | 40.1 µM (inactive) | > 81.5 µM (inactive) | 26.5 µM (inactive)
5 | COC(=O)c1ccc(NC(=O)O/N=C(\Cl)C(C)C)cc1 | 3.05 µM (inactive) | 17.8 µM (inactive) | 1.74 µM (inactive) | 0.32 µM (active) | 1.69 µM (inactive) | 17.1 µM (inactive) | 7.78 µM (inactive) | 1.97 µM (inactive) | 17.7 µM (inactive) | 1.94 µM (inactive) | 19.5 µM (inactive) | 18.1 µM (inactive) | 20.9 µM (inactive) | 2.67 µM (inactive) | 13.1 µM (inactive) | 1.83 µM (inactive) | 1.36 µM (inactive) | 10.8 µM (inactive) | 4.53 µM (inactive) | 16.9 µM (inactive)
6 | O=c1oc2ccccc2c(Nc2ccc3c(c2)S(=O)(=O)c2ccccc2O3)c1[N+](=O)[O-] | 22.4 µM (inactive) | 24 µM (inactive) | 27 µM (inactive) | 19.7 µM (inactive) | 17.8 µM (inactive) | 23.5 µM (inactive) | 22 µM (inactive) | 20.8 µM (inactive) | 24.8 µM (inactive) | 22.3 µM (inactive) | 28.1 µM (inactive) | 20 µM (inactive) | 25.5 µM (inactive) | 24.2 µM (inactive) | 14.5 µM (inactive) | 19.5 µM (inactive) | 27.3 µM (inactive) | 36.7 µM (inactive) | 20.1 µM (inactive) | 26.9 µM (inactive)
7 | C[C@H](CCC(=O)NCCS(=O)(=O)O)[C@H]1CC[C@H]2[C@@H]3CC[C@@H]4C[C@H](O)CC[C@]4(C)[C@H]3CC[C@]12C | > 100 µM (inactive) | > 100 µM (inactive) | > 100 µM (inactive) | > 100 µM (inactive) | > 100 µM (inactive) | > 100 µM (inactive) | > 100 µM (inactive) | > 100 µM (inactive) | > 100 µM (inactive) | > 100 µM (inactive) | > 100 µM (inactive) | > 100 µM (inactive) | > 100 µM (inactive) | > 100 µM (inactive) | > 100 µM (inactive) | > 100 µM (inactive) | > 100 µM (inactive) | > 100 µM (inactive) | > 100 µM (inactive) | > 100 µM (inactive)
